Columns and labels:
[1] = tested on: DU-145; assay: Cytotoxicity against human DU145 cells after 48 hrs by SRB assay; assay type: functional, cell-based; details: DU-145, 48 h
[2] = tested on: HL-60; assay: Cytotoxicity against human HL60 cells at 10 uM after 48 hrs by SRB assay; assay type: functional; details: HL-60, 48 h, read-out: GI
[3] = tested on: DU-145; assay: Cytotoxicity against human DU145 cells at 10 uM after 48 hrs by SRB assay; assay type: functional; details: DU-145, 48 h, read-out: GI
[4] = tested on: MCF7; assay: Cytotoxicity against human MCF7 cells at 10 uM after 48 hrs by SRB assay; assay type: functional; details: MCF7, 48 h, read-out: GI
[5] = tested on: HL-60; assay: Cytotoxicity against human HL60 cells at 30 uM after 48 hrs by SRB assay; assay type: functional; details: HL-60, 48 h, read-out: GI
[6] = tested on: HEp-2; assay: Cytotoxicity against human Hep2 cells after 48 hrs by SRB assay; assay type: functional, cell-based; details: HEp-2, 48 h
[7] = tested on: HEp-2; assay: Cytotoxicity against human Hep2 cells at 10 uM after 48 hrs by SRB assay; assay type: functional; details: HEp-2, 48 h, read-out: GI
[8] = tested on: HCT-15; assay: Cytotoxicity against human HCT15 cells after 48 hrs by SRB assay; assay type: functional, cell-based; details: HCT-15, 48 h
[9] = tested on: MCF7; assay: Cytotoxicity against human MCF7 cells after 48 hrs by SRB assay; assay type: functional, cell-based; details: MCF7, 48 h
[10] = tested on: THP-1; assay: Cytotoxicity against human THP1 cells at 30 uM after 48 hrs by SRB assay; assay type: functional; details: THP-1, 48 h, read-out: GI
[11] = tested on: MCF7; assay: Cytotoxicity against human MCF7 cells at 30 uM after 48 hrs by SRB assay; assay type: functional; details: MCF7, 48 h, read-out: GI
[12] = tested on: A549; assay: Cytotoxicity against human A549 cells at 30 uM after 48 hrs by SRB assay; assay type: functional; details: A549, 48 h, read-out: GI
[13] = tested on: PC-3; assay: Cytotoxicity against human PC3 cells at 30 uM after 48 hrs by SRB assay; assay type: functional; details: PC-3, 48 h, read-out: GI
[14] = tested on: THP-1; assay: Cytotoxicity against human THP1 cells after 48 hrs by SRB assay; assay type: functional, cell-based; details: THP-1, 48 h
[15] = tested on: HEp-2; assay: Cytotoxicity against human Hep2 cells at 30 uM after 48 hrs by SRB assay; assay type: functional; details: HEp-2, 48 h, read-out: GI
[16] = tested on: SF-295; assay: Cytotoxicity against human SF295 cells after 48 hrs by SRB assay; assay type: functional, cell-based; details: SF-295, 48 h
[17] = tested on: SF-295; assay: Cytotoxicity against human SF295 cells at 10 uM after 48 hrs by SRB assay; assay type: functional; details: SF-295, 48 h, read-out: GI
[18] = tested on: A549; assay: Cytotoxicity against human A549 cells at 10 uM after 48 hrs by SRB assay; assay type: functional; details: A549, 48 h, read-out: GI
[19] = tested on: HL-60; assay: Cytotoxicity against human HL60 cells at 50 uM after 48 hrs by SRB assay; assay type: functional; details: HL-60, 48 h, read-out: GI
[20] = tested on: HCT-15; assay: Cytotoxicity against human HCT15 cells at 30 uM after 48 hrs by SRB assay; assay type: functional; details: HCT-15, 48 h, read-out: GI
[21] = tested on: DU-145; assay: Cytotoxicity against human DU145 cells at 50 uM after 48 hrs by SRB assay; assay type: functional; details: DU-145, 48 h, read-out: GI
[22] = tested on: PC-3; assay: Cytotoxicity against human PC3 cells at 50 uM after 48 hrs by SRB assay; assay type: functional; details: PC-3, 48 h, read-out: GI
[23] = tested on: HCT-15; assay: Cytotoxicity against human HCT15 cells at 50 uM after 48 hrs by SRB assay; assay type: functional; details: HCT-15, 48 h, read-out: GI
[24] = tested on: SF-295; assay: Cytotoxicity against human SF295 cells at 50 uM after 48 hrs by SRB assay; assay type: functional; details: SF-295, 48 h, read-out: GI
[25] = tested on: HL-60; assay: Cytotoxicity against human HL60 cells after 48 hrs by SRB assay; assay type: functional, cell-based; details: HL-60, 48 h
[26] = tested on: HEp-2; assay: Cytotoxicity against human Hep2 cells at 50 uM after 48 hrs by SRB assay; assay type: functional; details: HEp-2, 48 h, read-out: GI
[27] = tested on: PC-3; assay: Cytotoxicity against human PC3 cells at 10 uM after 48 hrs by SRB assay; assay type: functional; details: PC-3, 48 h, read-out: GI
[28] = tested on: DU-145; assay: Cytotoxicity against human DU145 cells at 30 uM after 48 hrs by SRB assay; assay type: functional; details: DU-145, 48 h, read-out: GI
[29] = tested on: THP-1; assay: Cytotoxicity against human THP1 cells at 50 uM after 48 hrs by SRB assay; assay type: functional; details: THP-1, 48 h, read-out: GI
[30] = tested on: THP-1; assay: Cytotoxicity against human THP1 cells at 10 uM after 48 hrs by SRB assay; assay type: functional; details: THP-1, 48 h, read-out: GI
[31] = tested on: MCF7; assay: Cytotoxicity against human MCF7 cells at 50 uM after 48 hrs by SRB assay; assay type: functional; details: MCF7, 48 h, read-out: GI
[32] = tested on: HCT-15; assay: Cytotoxicity against human HCT15 cells at 10 uM after 48 hrs by SRB assay; assay type: functional; details: HCT-15, 48 h, read-out: GI
[33] = tested on: PC-3; assay: Cytotoxicity against human PC3 cells after 48 hrs by SRB assay; assay type: functional, cell-based; details: PC-3, 48 h
[34] = tested on: A549; assay: Cytotoxicity against human A549 cells at 50 uM after 48 hrs by SRB assay; assay type: functional; details: A549, 48 h, read-out: GI
[35] = tested on: A549; assay: Cytotoxicity against human A549 cells after 48 hrs by SRB assay; assay type: functional, cell-based; details: A549, 48 h
[36] = tested on: SF-295; assay: Cytotoxicity against human SF295 cells at 30 uM after 48 hrs by SRB assay; assay type: functional; details: SF-295, 48 h, read-out: GI

| SMILES | IC50 [1] [µM] | inhibition of growth at 10 µM [2] [%] | inhibition of growth at 10 µM [3] [%] | inhibition of growth at 10 µM [4] [%] | inhibition of growth at 30 µM [5] [%] | IC50 [6] [µM] | inhibition of growth at 10 µM [7] [%] | IC50 [8] [µM] | IC50 [9] [µM] | inhibition of growth at 30 µM [10] [%] | inhibition of growth at 30 µM [11] [%] | inhibition of growth at 30 µM [12] [%] | inhibition of growth at 30 µM [13] [%] | IC50 [14] [µM] | inhibition of growth at 30 µM [15] [%] | IC50 [16] [µM] | inhibition of growth at 10 µM [17] [%] | inhibition of growth at 10 µM [18] [%] | inhibition of growth at 50 µM [19] [%] | inhibition of growth at 30 µM [20] [%] | further results |
| --- | --- | --- | --- | --- | --- | --- | --- | --- | --- | --- | --- | --- | --- | --- | --- | --- | --- | --- | --- | --- | --- |
| C=C(C)[C@@H]1CC[C@]2(C(=O)O)CC[C@]3(C)[C@H](CC[C@@H]4[C@@]5(C)CC[C@H](OCc6cn(-c7ccc8c(c7)OCO8)nn6)C(C)(C)[C@@H]5CC[C@]43C)[C@@H]12 | 30 | 41 | 10 | 47 | 50 | 26 | 9 | 50 | 13 | 46 | 68 | 40 | 32 | 34 | 56 | 18 | 36 | 22 | 61 | 36 | inhibition of growth at 50 µM [21]: 91%; inhibition of growth at 50 µM [22]: 61%; inhibition of growth at 50 µM [23]: 50%; inhibition of growth at 50 µM [24]: 65%; IC50 [25]: 30 µM; inhibition of growth at 50 µM [26]: 67%; inhibition of growth at 10 µM [27]: 2%; inhibition of growth at 30 µM [28]: 50%; inhibition of growth at 50 µM [29]: 52%; inhibition of growth at 10 µM [30]: 33%; inhibition of growth at 50 µM [31]: 82%; inhibition of growth at 10 µM [32]: 22%; IC50 [33]: 43 µM; inhibition of growth at 50 µM [34]: 40%; IC50 [35]: > 50 µM; inhibition of growth at 30 µM [36]: 55% |
| C=C(C)[C@@H]1CC[C@]2(C(=O)O)CC[C@]3(C)[C@H](CC[C@@H]4[C@@]5(C)CC[C@H](OCc6cn(-c7ccccc7CO)nn6)C(C)(C)[C@@H]5CC[C@]43C)[C@@H]12 | 16 | 50 | 43 | 50 | 69 | 14 | 45 | 10 | 10 | 65 | 72 | 55 | 28 | 15 | 61 | 17 | 35 | 54 | 80 | 80 | inhibition of growth at 50 µM [21]: 65%; inhibition of growth at 50 µM [22]: 52%; inhibition of growth at 50 µM [23]: 82%; inhibition of growth at 50 µM [24]: 77%; IC50 [25]: 10 µM; inhibition of growth at 50 µM [26]: 64%; inhibition of growth at 10 µM [27]: 10%; inhibition of growth at 30 µM [28]: 55%; inhibition of growth at 50 µM [29]: 78%; inhibition of growth at 10 µM [30]: 45%; inhibition of growth at 50 µM [31]: 80%; inhibition of growth at 10 µM [32]: 50%; IC50 [33]: 49 µM; inhibition of growth at 50 µM [34]: 57%; IC50 [35]: 14 µM; inhibition of growth at 30 µM [36]: 72% |
| C=C(C)[C@@H]1CC[C@]2(C(=O)O)CC[C@]3(C)[C@H](CC[C@@H]4[C@@]5(C)CC[C@H](OCc6cn(-c7cccc(I)c7)nn6)C(C)(C)[C@@H]5CC[C@]43C)[C@@H]12 | 25 | 13 | 23 | 51 | 45 | 3.8 | 71 | 39 | 8 | 41 | 58 | 27 | 24 | 46 | 74 | 44 | 6 | 28 | 64 | 45 | inhibition of growth at 50 µM [21]: 62%; inhibition of growth at 50 µM [22]: 27%; inhibition of growth at 50 µM [23]: 54%; inhibition of growth at 50 µM [24]: 66%; IC50 [25]: 43 µM; inhibition of growth at 50 µM [26]: 72%; inhibition of growth at 10 µM [27]: 8%; inhibition of growth at 30 µM [28]: 62%; inhibition of growth at 50 µM [29]: 56%; inhibition of growth at 10 µM [30]: 9%; inhibition of growth at 50 µM [31]: 61%; inhibition of growth at 10 µM [32]: 29%; IC50 [33]: 39 µM; inhibition of growth at 50 µM [34]: 33%; IC50 [35]: > 50 µM; inhibition of growth at 30 µM [36]: 27% |

Source: ChEMBL document CHEMBL2380302, “Synthesis of 3-O-propargylated betulinic acid and its 1,2,3-triazoles as potential apoptotic agents” (Eur J Med Chem, 2013)
